Series [1] can be described thus: logP by HPLC on reversed phase columns, method [a], pH 2.3 with 0.1% phosphoric acid and acetonitrile. The following applies: method [a]: pH 2.3, 0.1% phosphoric acid and acetonitrile as eluent; EEC directive 79/831 Annex V.A8, reversed phase HPLC. Type of series: physicochemical.
Series [2] can be described thus: logP(HCOOH) reported with HPLC/MS.
Where [3] appears, read: HCOOH (formic acid), logP(HCOOH), HPLC/MS.
The mark [4] stands for this setting: reversed phase HPLC column, pH 2.7, log p, method [b]: LC-MS, pH 2.7 with 0.1% formic acid in water and acetonitrile (0.1% formic acid), linear gradient 10% to 95% acetonitrile.
The mark [5] stands for this setting: method [b]: LC-MS, pH 2.7 with 0.1% formic acid in water and acetonitrile (0.1% formic acid), linear gradient 10% to 95% acetonitrile.
Where [6] appears, read: method [b]: LC-MS at pH 2.7, 0.1% formic acid in water and acetonitrile, linear gradient 10% to 95% acetonitrile.
Setting [7] is: method [b]: LC-MS at pH 2.7 with 0.1% formic acid in water and acetonitrile (0.1% formic acid), linear gradient 10% to 95% acetonitrile.
The mark [8] stands for this setting: method [c]: LC-MS, pH 7.8 with 0.001 molar ammonium hydrogen carbonate solution in water, linear gradient 10% to 95% acetonitrile.
The mark [9] stands for this setting: reversed phase HPLC columns, pH 2.3, log p, method [a]: HPLC on reversed phase columns, pH 2.3 with 0.1% phosphoric acid and acetonitrile as eluent.

For `Cn1nnnc1C(=NOCc1cccc(C#Cc2ccccc2)n1)c1ccccc1` [Example 25], in series [1], the log p is 4.04^[a].

In general, chromatographic logP refers to lipophilicity estimated from chromatographic retention. As to `Cn1nnnc1C(=NOCc1csc(C#CCOCc2ccccc2)n1)c1ccccc1` [Example 263, N-({2-[3-(benzyloxy)prop-1-yn-1-yl]-1,3-thiazol-4-yl}methoxy)-1-(1-methyl-1H-tetrazol-5-yl)-1-phenylmethanimine], the chromatographic logP in series [2] (setting [3]) and in series [2] (setting [4]) was 4.04 in each case. With `Cn1nnnc1C(=NOCc1cccc(C#Cc2ccc(N3CCCCC3)cc2)n1)c1ccccc1` [Example 232], the log p in series [2] (setting [5]) was 4.81^[b]. As for `CCCCC#Cc1nc(CON=C(c2cccc(F)c2)c2nnnn2C)cs1` [Example 149], in series [2] (setting [5]), the log p was 4.51^[b]. As for `Cn1nnnc1C(=NOCc1csc(C#Cc2ccc(C#N)cc2)n1)c1ccccc1` [Example 191], the log p in series [2] (setting [5]) was 3.76^[b].

`CCSCC#Cc1nc(CON=C(c2ccccc2)c2nnnn2C)cs1` [Example 199]: the log p in series [2] (setting [5]) was 3.78^[b].

In the case of `Cc1nnnn1C(=NOCc1cccc(NC(=S)NC2CCCCC2)n1)c1ccccc1` [Example 8], the log p in series [2] (setting [6]) was 3.81^[b]. For the compound `Cn1nnnc1C(=NOCc1csc(C#Cc2cccc(F)c2)n1)c1ccccc1` [Example 264], the log p in series [2] (setting [5]) is 4.19^[b].

On to `CC(C)NC(=O)c1cccc(CON=C(c2ccccc2)c2nnnn2C)n1` [Example 84], for which the log p in series [2] (setting [6]) is 2.84^[b].

Regarding `CCCCCCCCNC(=S)Nc1cccc(CON=C(c2ccccc2)n2nnnc2C)n1` [Example 6], the log p in series [2] (setting [6]) was 4.97^[b]. Regarding `Cn1nnnc1C(=NOCc1cccc(C#CCCC#N)n1)c1ccccc1` [Example 209], the log p in series [2] (setting [5]) was 2.7^[b]. Consider `CCCCCC#Cc1cccc(CON=C(c2ccccc2)c2nnnn2C)n1` [Example 214], for which the log p in series [2] (setting [5]) was 4.67^[b].

As for `Cn1nnnc1C(=NOCc1nc(C#CCCCC#N)ccc1F)c1ccccc1` [Example 103], the log p in series [2] (setting [6]) is 3.11^[b].

For `Cn1nnnc1C(=NOCc1cccc(C#CCCc2ccccc2)n1)c1ccccc1` [Example 210], in series [2] (setting [5]), the log p was 4.29^[b].

`CC(C)CSC(=O)Nc1cccc(CON=C(c2ccccc2)c2nnnn2C)n1` [Example 308]: in series [2] (setting [7]), the log p is 4.21^[b].

Consider `Cn1nnnc1C(=NOCc1cccc(C#CCC2CCCCC2)n1)c1ccccc1` [Example 213], for which the log p in series [2] (setting [5]) is 5.17^[b]. On to `Cn1nnnc1C(=NOCc1nc(C#CC2CCCC2)sc1Cl)c1ccccc1` [Example 116], for which the log p in series [2] (setting [6]) is 5.31^[b]. Take `Cn1nnnc1C(=NOCc1nc(C#CCCCCl)ccc1F)c1ccccc1` [Example 105]: the log p in series [2] (setting [6]) is 3.87^[b].

As to `Cn1nnnc1C(=NOCc1cccc(C2OCC(COCc3ccccc3)O2)n1)c1ccccc1` (stereo not drawn) [Example 173], the log p in series [2] (setting [8]) was 3.89^[c]. Turning to `CCCCC#Cc1nc(CON=C(c2ccccc2)c2nnnn2C)c(C)s1` [Example 183], in series [2] (setting [5]), the log p is 3.37^[b]. For `CSc1cccc(C(=NOCc2csc(C#CC3CC3)n2)c2nnnn2C)c1` [Example 303], in series [2] (setting [7]), the log p is 3.99^[b].

In the case of `CN(C)c1cccc(C(=O)c2nnnn2C)c1` [[3-(dimethylamino)phenyl](1-methyl-1H-tetrazol-5-yl)methanone], the chromatographic logP in series [2] (setting [3]) was determined as 2.21. Still for that read-out and setting: the value for `Cc1cccc(C2OCCO2)[n+]1[O-]` [2-(1,3-dioxolan-2-yl)-6-methylpyridine 1-oxide] was 0.45. `Cn1nnnc1C(=NOCc1cccc(N(CCC2CCCCC2)C(=O)OC(C)(C)C)n1)c1ccccc1` [Example 141, tert-butyl (2-cyclohexylethyl){6-[({[(1-methyl-1H-tetrazol-5-yl)(phenyl)methylene]amino}oxy)methyl]pyridin-2-yl}carbamate]: the chromatographic logP in series [2] (setting [3]) and in series [2] (setting [9]) was 6.56 each time. Regarding `Cn1nnnc1C(=NOCc1nc(C#CCc2ccccc2)ccc1F)c1ccccc1` [Example 100], in series [2] (setting [6]), the log p was 4.24^[b]. In the case of `CCc1ccc(C#Cc2cccc(CON=C(c3ccccc3)c3nnnn3C)n2)cc1` [Example 230], the log p in series [2] (setting [5]) is 4.81^[b]. `CCCCCOC(=O)NCc1cccc(CON=C(c2ccccc2)c2nnnn2C)n1` [Example 60]: the log p in series [2] (setting [6]) was 3.48^[b].

For the compound `CCCCC1COC(c2cccc(CON=C(c3ccccc3)c3nnnn3C)n2)O1` (stereo not drawn) [Example 172], the log p in series [2] (setting [8]) was 4.34^[c]. For `Cn1nnnc1C(=NOCc1csc(C#CC2CC2)n1)c1cccc(F)c1` [Example 148], the log p in series [2] (setting [5]) is 3.71^[b]. Turning to `CSc1cccc(C(=NO)c2nnnn2C)c1` [N-hydroxy-1-[3-(methylsulfanyl)phenyl]-1-(1-methyl-1H-tetrazol-5-yl)methanimine], the chromatographic logP in series [2] (setting [3]) is 1.98. In the case of `Cn1nnnc1C(=NOCc1csc(C#Cc2ccccc2C(F)(F)F)n1)c1ccccc1` [Example 267], in series [2] (setting [7]), the log p was 4.51^[b]. Turning to `Cn1nnnc1C(=NOCc1cccc(C=O)n1)c1ccccc1` [Example 174, 6-[({[(1-methyl-1H-tetrazol-5-yl)(phenyl)methylene]amino}oxy)methyl]pyridine-2-carbaldehyde], the chromatographic logP in series [2] (logP(HCOOH), HPLC/MS) turned out to be 2.54; in series [2] (setting [9]), 2.54. `Cn1nnnc1C(=NOCc1cccc(C#Cc2cccc(C(F)(F)F)c2)n1)c1ccccc1` [Example 218]: the log p in series [2] (setting [5]) was 4.62^[b].

Regarding `CCCCCC#Cc1nc(CON=C(c2cccc(F)c2)c2nnnn2C)cs1` [Example 152], the log p in series [2] (setting [5]) was 4.94^[b]. As for `COC(C)(C)C#Cc1nc(CON=C(c2ccccc2)c2nnnn2C)cs1` [Example 196], in series [2] (setting [5]), the log p was 3.53^[b]. On the same count and under the same terms, the figure for `Cn1nnnc1C(=NOCc1cccc(C#Cc2ccc(C(F)(F)F)cc2)n1)c1ccccc1` [Example 217] is 4.65^[b].

Regarding `Cc1cccc(NC(=O)C(C)(C)C)n1` [2,2-dimethyl-N-(6-methylpyridin-2-yl)propanamide], in series [2] (setting [3]), the chromatographic logP is 1.2. For `CC(C)(C)OC(=O)Nc1cccc(CO)n1` [tert-butyl [6-(hydroxymethyl)pyridin-2-yl]carbamate], in series [2] (logP(HCOOH), HPLC/MS), the chromatographic logP is 1.14.

Consider `Cc1nnnn1C(=NOCc1cccc(NC(=S)NC(C)C)n1)c1ccccc1` [Example 12], for which, in series [2] (setting [6]), the log p is 3.22^[b].

In the case of `Cc1nnnn1C(=NOCc1csc(Br)n1)c1ccccc1` [Example 145, N-[(2-bromo-1,3-thiazol-4-yl)methoxy]-1-(5-methyl-1H-tetrazol-1-yl)-1-phenylmethanimine], the chromatographic logP in series [2] (HPLC, logP(HCOOH), HPLC/MS) was 3.15; in series [2] (setting [4]) it was 3.15. With `Cn1nnnc1C(=NOCc1cccc(C#Cc2cc(F)cc(F)c2)n1)c1ccccc1` [Example 233], the log p in series [2] (setting [5]) was 4.31^[b]. Take `Cn1nnnc1C(=NOCc1cccc(C#Cc2ccc3ccccc3c2)n1)c1ccccc1` [Example 208]: the log p in series [2] (setting [5]) is 4.78^[b]. In the case of `CCCCCON(C(=O)OC(C)(C)C)c1cccc(CON=C(c2ccccc2)c2nnnn2C)n1` [Example 268, tert-butyl {6-[({[(1-methyl-1H-tetrazol-5-yl)(phenyl)methylene]amino}oxy)methyl]pyridin-2-yl}(pentyloxy)carbamate], the chromatographic logP was found to be 5.25 in series [2] (setting [3]); 5.25 in series [2] (reversed phase HPLC column, pH 2.7, log p, method [b]: LC-MS at pH 2.7 with 0.1% formic acid in water and acetonitrile (0.1% formic acid), linear gradient 10% to 95% acetonitrile).

In the case of `Cn1nnnc1C(=NOCc1cccc(C#CCc2cccc(F)c2)n1)c1ccccc1` [Example 112], in series [2] (setting [6]), the log p is 4.16^[b]. In the case of `CCCC#Cc1nc(CON=C(c2ccccc2)n2nnnc2C)cs1` [Example 165], the log p in series [2] (setting [5]) was 4.04^[b]. As to `Cn1nnnc1C(=NOCc1cccc(N(OCc2ccccc2)C(=O)OC(C)(C)C)n1)c1ccccc1` [Example 282], the log p in series [2] (setting [7]) is 4.65^[b]. In series [2] (logP(HCOOH), HPLC/MS), `Fc1ccc(Br)nc1CBr` [6-bromo-2-(bromomethyl)-3-fluoropyridine] registered a chromatographic logP of 2.58.

In series [2] (HPLC, logP(HCOOH), HPLC/MS), `Cc1sc(Br)nc1CBr` [2-bromo-4-(bromomethyl)-5-methyl-1,3-thiazole] had a chromatographic logP of 2.64. `COc1cccc(C#Cc2cccc(CON=C(c3ccccc3)c3nnnn3C)n2)c1` [Example 221]: the log p in series [2] (setting [5]) is 4.09^[b].

Turning to `Cn1nnnc1C(=NOCc1csc(C#Cc2ccc3ccccc3c2)n1)c1ccccc1` [Example 194], the log p in series [2] (setting [5]) is 4.92^[b].

`Cc1sc(C#CCC2CCCCC2)nc1CON=C(c1ccccc1)c1nnnn1C` [Example 184]: the log p in series [2] (setting [5]) is 5.62^[b]. With `Cc1nnnn1C(=NOCc1csc(C#CC2CC2)n1)c1ccccc1` [Example 159], the chromatographic logP in series [2] (logP(HCOOH), HPLC/MS) turned out to be 3.65; in series [2] (setting [4]) it was 3.65. As to `Cn1nnnc1C(=NOCc1cccc(C#Cc2ccc(OC(F)(F)F)cc2)n1)c1ccccc1` [Example 220], the log p in series [2] (setting [5]) was 4.75^[b]. For `Cn1nnnc1C(=NOCc1csc(C#CCCc2ccccc2)n1)c1cccc(F)c1` [Example 156], the log p in series [2] (setting [5]) is 4.49^[b]. On to `Cn1nnnc1C(=NOCc1csc(C#CCC2CCCCC2)n1)c1cccc(F)c1` [Example 147], for which, in series [2] (setting [5]), the log p is 5.42^[b]. The compound `CN(C)c1cccc(C(=NOCc2cccc(N3C(=O)c4ccccc4C3=O)n2)c2nnnn2C)c1` [2-(6-{[({[3-(dimethylamino)phenyl](1-methyl-1H-tetrazol-5-yl)methylene}amino)oxy]methyl}pyridin-2-yl)-1H-isoindole-1,3(2H)-dione] had a chromatographic logP in series [2] (setting [3]) of 3.17.

As for `COc1ccc(CON=C(c2ccccc2)c2nnnn2C)nc1C#CCC1CCCC1` [Example 128], the log p in series [2] (setting [6]) was 4.46^[b].

The values are drawn from patent US8466176B2 (priority 2008, dated 2013).
